Test results published in patent US20250084061A1, “SULFONYL FUNCTIONAL COMPOUND, METHODS AND USES THEREOF” (Hubei Biopesticide Engineering Research Centre, priority 2023, published 2025).

Experiments:
Assay type in all cases: in vivo
Aphiscraccivora = experiment: Insecticidal activity, dipping method
Method: (§1) The insecticidal activity of sulfonyl functional compounds in the above embodiments were tested for agricultural biological functions, and the targets of insecticidal activity were Heliothis armigera, Plutella xylostella and Aphiscraccivora.
(§2) The insecticidal activity of sulfonyl functional compounds against Aphiscraccivora was tested by the method of dipping. Mother liquors were prepared by the sulfonyl functional compounds provided in the above embodiments dissolved in ethanol, respectively. 500 mg/L, 250 mg/L or 125 mg/L test solution could be prepared by diluting the different mother liquors with a liquor that contained 0.1 mL/L of emulgator (Tween-80). Every test solution was tested twice (Rep1 and Rep2). A blank control was set up, and the activity results were compared with the blank control. The mortality rate of 0˜30%, 30˜50%, 50-70%, 70˜90%, or 90˜100% could be orderly set as 0, 3, 5, 7, or 9.

Heliothis armigera = experiment: Insecticidal activity, artificial feed surface coating method; conditions: for mortality at 125 µg/mL / mortality at 250 µg/mL / mortality at 500 µg/mL: Helicoverpa armigera, read-out: Insecticidal activity (mortality rate grade) Heliothis armigera
Method: as §1
(§3) Using Heliothis armigera and Plutella xylostella as target, the insecticidal activities of sulfonyl functional compounds were tested by conventional artificial feed surface coating method. 300 microliters of artificial feed and 20 microliters of test solution were added to each well of the 24-well cell culture plate. The test solution was used in different concentrations and repeated twice (Rep1 and Rep2). The concentrations of the test solution were 500 mg/L, 250 mg/L and 125 mg/L, respectively.
as §2

Plutella xylostella = experiment: as above; conditions: for mortality at 125 µg/mL / mortality at 250 µg/mL / mortality at 500 µg/mL: Plutella xylostella, read-out: Insecticidal activity (mortality rate grade) Plutella xylostella
Method: as §1, §3, §2

Compound	Insecticidal activity (mortality rate grade) Aphiscraccivora (Aphiscraccivora; 125 mg/L test solution)	Insecticidal activity (mortality rate grade) Aphiscraccivora (Aphiscraccivora; 250 mg/L test solution)	Insecticidal activity (mortality rate grade) Aphiscraccivora (Aphiscraccivora; 500 mg/L test solution)	mortality at 125 µg/mL (Heliothis armigera; 125 mg/L test solution) [%]	mortality at 250 µg/mL (Heliothis armigera; 250 mg/L test solution) [%]	mortality at 500 µg/mL (Heliothis armigera; 500 mg/L test solution) [%]	mortality at 125 µg/mL (Plutella xylostella; 125 mg/L test solution) [%]	mortality at 250 µg/mL (Plutella xylostella; 250 mg/L test solution) [%]	mortality at 500 µg/mL (Plutella xylostella; 500 mg/L test solution) [%]	Insecticidal activity (mortality rate grade) Heliothis armigera (Heliothis armigera; 125 mg/L test solution)	Insecticidal activity (mortality rate grade) Heliothis armigera (Heliothis armigera; 250 mg/L test solution)	Insecticidal activity (mortality rate grade) Heliothis armigera (Heliothis armigera; 500 mg/L test solution)	Insecticidal activity (mortality rate grade) Plutella xylostella (Plutella xylostella; 125 mg/L test solution)	Insecticidal activity (mortality rate grade) Plutella xylostella (Plutella xylostella; 250 mg/L test solution)	Insecticidal activity (mortality rate grade) Plutella xylostella (Plutella xylostella; 500 mg/L test solution)
N#CCNC(=O)c1c[n+](CCCS(=O)(=O)O)ccc1C(F)(F)F [Compound I-1]	5 (50-70%)	7 (70˜90%)	9 (90˜100%)	0 to 30	0 to 30	30 to 50	0 to 30	0 to 30	50 to 70						
CC(=O)N1N=C(C)CN(N=Cc2ccc[n+](CCCS(=O)(=O)[O-])c2)C1=O [IV-4]	9 (90˜100%)	9 (90˜100%)	9 (90˜100%)							0 (mortality rate of 0˜30%)	3 (30˜50%)	5 (50-70%)	3 (30˜50%)	5 (50-70%)	5 (50-70%)
O=C(NCCc1ccc(OC(F)(F)F)cc1)c1c[n+](CCCCS(=O)(=O)O)ccc1C(F)(F)F [Compound I-6]	5 (50-70%)	7 (70˜90%)	7 (70˜90%)	0 to 30	0 to 30	30 to 50	0 to 30	30 to 50	50 to 70						
N#CCNC(=O)c1c[n+](C/C=C/S(=O)(=O)O)ccc1C(F)(F)F [Compound I-2]	7 (70˜90%)	9 (90˜100%)	9 (90˜100%)	0 to 30	30 to 50	50 to 70	0 to 30	30 to 50	50 to 70						
CCC(=O)N1N=C(C)CN(N=Cc2ccc[n+](CC=CS(=O)(=O)[O-])c2)C1=O [IV-7]	5 (50-70%)	7 (70˜90%)	9 (90˜100%)							0 (mortality rate of 0˜30%)	0 (mortality rate of 0˜30%)	0 (mortality rate of 0˜30%)	0 (mortality rate of 0˜30%)	0 (mortality rate of 0˜30%)	3 (30˜50%)
CC(=O)N1N=C(C)CN(N=Cc2ccc[n+](CC=CS(=O)(=O)[O-])c2)C1=O [IV-6]	5 (50-70%)	9 (90˜100%)	9 (90˜100%)							0 (mortality rate of 0˜30%)	3 (30˜50%)	3 (30˜50%)	0 (mortality rate of 0˜30%)	3 (30˜50%)	5 (50-70%)
O=C(NCCc1ccc(OC(F)(F)F)cc1)c1c[n+](C/C=C/S(=O)(=O)O)ccc1C(F)(F)F [Compound I-5]	3 (30˜50%)	3 (30˜50%)	7 (70˜90%)	0 to 30	0 to 30	30 to 50	30 to 50	50 to 70	50 to 70						
CC1=NNC(=O)N(N=Cc2ccc[n+](CCCS(=O)(=O)[O-])c2)C1 [IV-1]	9 (90˜100%)	9 (90˜100%)	9 (90˜100%)							0 (mortality rate of 0˜30%)	3 (30˜50%)	3 (30˜50%)	3 (30˜50%)	3 (30˜50%)	5 (50-70%)
N#CCNC(=O)c1c[n+](CCCCS(=O)(=O)O)ccc1C(F)(F)F [Compound I-3]	7 (70˜90%)	7 (70˜90%)	9 (90˜100%)	0 to 30	30 to 50	30 to 50	30 to 50	50 to 70	50 to 70						
O=C(NCCc1ccc(OC(F)(F)F)cc1)c1c[n+](CCCS(=O)(=O)O)ccc1C(F)(F)F [Compound I-4]	3 (30˜50%)	5 (50-70%)	7 (70˜90%)	0 to 30	30 to 50	30 to 50	0 to 30	30 to 50	50 to 70						
CCC(=O)N1N=C(C)CN(N=Cc2ccc[n+](CCCCS(=O)(=O)[O-])c2)C1=O [IV-9]	7 (70˜90%)	7 (70˜90%)	9 (90˜100%)							0 (mortality rate of 0˜30%)	0 (mortality rate of 0˜30%)	0 (mortality rate of 0˜30%)	0 (mortality rate of 0˜30%)	0 (mortality rate of 0˜30%)	3 (30˜50%)
CCC(=O)N1N=C(C)CN(N=Cc2ccc[n+](CCCS(=O)(=O)[O-])c2)C1=O [IV-5]	7 (70˜90%)	7 (70˜90%)	9 (90˜100%)							0 (mortality rate of 0˜30%)	0 (mortality rate of 0˜30%)	0 (mortality rate of 0˜30%)	0 (mortality rate of 0˜30%)	0 (mortality rate of 0˜30%)	3 (30˜50%)
CC1=NNC(=O)N(N=Cc2ccc[n+](CC=CS(=O)(=O)[O-])c2)C1 [IV-2]	7 (70˜90%)	9 (90˜100%)	9 (90˜100%)							0 (mortality rate of 0˜30%)	0 (mortality rate of 0˜30%)	0 (mortality rate of 0˜30%)	0 (mortality rate of 0˜30%)	3 (30˜50%)	5 (50-70%)
CC1=NNC(=O)N(N=Cc2ccc[n+](CCCCS(=O)(=O)[O-])c2)C1 [IV-3]	9 (90˜100%)	9 (90˜100%)	9 (90˜100%)							0 (mortality rate of 0˜30%)	0 (mortality rate of 0˜30%)	3 (30˜50%)	0 (mortality rate of 0˜30%)	3 (30˜50%)	3 (30˜50%)
CC(=O)N1N=C(C)CN(N=Cc2ccc[n+](CCCCS(=O)(=O)[O-])c2)C1=O [IV-8]	9 (90˜100%)	9 (90˜100%)	9 (90˜100%)							0 (mortality rate of 0˜30%)	0 (mortality rate of 0˜30%)	0 (mortality rate of 0˜30%)	0 (mortality rate of 0˜30%)	3 (30˜50%)	3 (30˜50%)
